These are literature values, as cited in US20050152989A1, “Method for treating irritable bowel syndrome” (Braintree Laboratories, Inc., priority 2003, published 2005).

The test system of series [1] is IBS.
In series [2] the test system is constipation-predominant IBS. Conditions: Case Study 2, patient history before the formulation.

Molecules are shown by their SMILES.

As for `Cc1[nH]cnc1CN1CCc2c(c3ccccc3n2C)C1=O` [alosetron], the toxicity limiting use result in series [1] (diarrhea-predominant IBS) is “severely limited by its toxicity”.

In the case of `[H]/N=C(/NCCCCC)N/N=C/c1c[nH]c2ccc(OC)cc12` [tegaserod], the “patients with significant improvement in IBS symptoms compared with placebo” value in series [1] (constipation-predominant IBS) is “about one of eight”.

Turning to `COc1cc(N)c(Cl)cc1C(=O)NC1CCN(CCCOc2ccc(F)cc2)CC1OC` (stereo not drawn) [cisapride], in series [2], the “outcome of earlier treatment regimens tried by the patient” value is “without success”.
